Holding throughout (assay type): biochemical
The target in experiment [1] is T1, Abl kinase (Homo sapiens, UniProt P00519).
T1 sequence (P00519 229-512): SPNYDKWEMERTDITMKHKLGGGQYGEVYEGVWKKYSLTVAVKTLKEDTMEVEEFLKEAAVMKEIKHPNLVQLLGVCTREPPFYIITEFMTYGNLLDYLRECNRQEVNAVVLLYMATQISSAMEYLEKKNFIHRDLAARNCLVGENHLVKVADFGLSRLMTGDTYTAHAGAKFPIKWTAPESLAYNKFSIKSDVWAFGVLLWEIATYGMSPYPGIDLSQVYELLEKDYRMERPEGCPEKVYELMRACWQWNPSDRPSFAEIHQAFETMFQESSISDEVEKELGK
Nature of the experiment: Abl kinase assay A1 (pyruvate kinase/lactate dehydrogenase coupled, spectrophotometric). The settings on record: Method A1; read-out: Abl Data (IC50). As to the method:
(§1) IC50 values were calculated from a series of percent inhibition values determined at a range of inhibitor concentrations using software routines as implemented in the GraphPad Prism software package.

For experiment [2], the target named is KDR kinase (Homo sapiens, UniProt P35968, DEL940-989/E990V). Nature of the experiment: KDR kinase assay K1 (pyruvate kinase/lactate dehydrogenase coupled, spectrophotometric). The settings on record: Method K1; read-out: KDR Data (IC50). How it is done:
as §1

Experiment [3] addresses B-Raf(V599E) kinase (Homo sapiens, UniProt P15056, V600E). Nature of the experiment: B-Raf(V599E) kinase assay B1 (construct 1, MEK1 substrate, coupled spectrophotometric). How it is done: The test compounds were incubated with the reaction mixtureat 30° C. for 2 h. […] The reaction rate was calculated using the […] time frame. […] IC50 values were calculated from a series of percent inhibition values determined at a range of inhibitor concentrations using software routines as implemented in the GraphPad Prism software package.

The target in experiment [4] is phosphorylated p-38-alpha kinase (Homo sapiens, UniProt Q16539). Nature of the experiment: P-38 alpha kinase assay P1 (coupled spectrophotometric, 2 h pre-incubation). The note with it: method P1 (2 h pre-incubation); read-out: P-38 Data.
Chain of phosphorylated p-38-alpha kinase (Q16539 1-360 isoform Q16539-2): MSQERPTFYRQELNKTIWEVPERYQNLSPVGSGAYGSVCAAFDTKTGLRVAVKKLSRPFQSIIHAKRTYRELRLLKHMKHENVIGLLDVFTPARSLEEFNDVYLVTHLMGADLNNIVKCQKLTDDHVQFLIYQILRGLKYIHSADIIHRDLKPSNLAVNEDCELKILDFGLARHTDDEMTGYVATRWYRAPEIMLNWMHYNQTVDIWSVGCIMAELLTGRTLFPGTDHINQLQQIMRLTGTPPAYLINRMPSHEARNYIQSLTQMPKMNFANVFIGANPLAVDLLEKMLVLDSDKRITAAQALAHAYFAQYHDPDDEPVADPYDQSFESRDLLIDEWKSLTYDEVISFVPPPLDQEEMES

The structures appear in SMILES notation.

Results on 24 molecules are retold here after US8163756B2 (priority 2004, dated 2012).

Chain of KDR kinase (P35968 with tags, fused parts or gaps DEL940-989/E990V): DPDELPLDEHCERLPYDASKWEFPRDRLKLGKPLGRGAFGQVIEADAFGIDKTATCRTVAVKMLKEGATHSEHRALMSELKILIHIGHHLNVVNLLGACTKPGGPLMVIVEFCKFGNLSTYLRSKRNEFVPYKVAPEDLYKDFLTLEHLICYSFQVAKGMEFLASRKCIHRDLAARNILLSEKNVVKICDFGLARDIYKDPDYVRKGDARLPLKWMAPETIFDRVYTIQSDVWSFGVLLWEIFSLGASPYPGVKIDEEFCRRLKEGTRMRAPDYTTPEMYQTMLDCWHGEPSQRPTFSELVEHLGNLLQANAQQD
Chain of B-Raf(V599E) kinase (P15056 with tags, fused parts or gaps V600E): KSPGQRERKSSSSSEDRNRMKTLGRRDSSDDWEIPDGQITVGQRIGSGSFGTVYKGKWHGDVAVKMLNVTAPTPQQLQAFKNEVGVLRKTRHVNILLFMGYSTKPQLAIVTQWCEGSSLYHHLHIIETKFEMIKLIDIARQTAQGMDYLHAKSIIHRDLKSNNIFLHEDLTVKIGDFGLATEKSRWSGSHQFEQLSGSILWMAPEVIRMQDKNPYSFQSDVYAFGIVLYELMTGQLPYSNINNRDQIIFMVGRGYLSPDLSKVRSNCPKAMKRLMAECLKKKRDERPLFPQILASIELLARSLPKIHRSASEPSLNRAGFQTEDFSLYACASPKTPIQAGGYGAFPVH

As to `CC(C)(C)c1cc(NC(=O)Nc2cccc(Cl)c2Cl)n(-c2ccc(CO)cc2)n1` [Example 19, 1-{3-t-butyl-1-[4-(hydroxymethyl)-phenyl]-1H-pyrazol-5-yl}-3-(2,3-dichlorophenyl)urea], the IC50 in experiment [1] came out at 620 nM; in experiment [2], 710 nM; in experiment [3], 4.8 nM.
Consider `CC(C)(C)c1cc(NC(=O)Nc2cccc(Cl)c2Cl)n(-c2ccc3c(c2)C[C@@H](C(=O)O)NC3)n1` [Example 186, (3S)-6-(3-t-butyl-5-(3-(2,3-dichlorophenyl)ureido)-1H-pyrazol-1-yl)-1,2,3,4-tetrahydroisoquinoline-3-carboxylic acid], for which the IC50 in experiment [1] amounted to 60 nM; in experiment [2], 900 nM; in experiment [3], 9.2 nM; in experiment [4] it was 50 nM.
As for `CC(C)(C)c1cc(NC(=O)Nc2cccc(Cl)c2Cl)n(-c2cccc(CN)c2)n1` [Example 42, 1-{1-[3-(aminomethyl)phenyl]-3-t-butyl-1H-pyrazol-5-yl}-3-(2,3-dichloro-phenyl)urea], the IC50 amounted to 1500 nM in experiment [1], 360 nM in experiment [2] and 10 nM in experiment [3].
Regarding `CC(C)(C)c1cc(NC(=O)Nc2cccc(Cl)c2Cl)n(-c2cccc(CCO)c2)n1` [Example 24, 1-{3-t-butyl-1-[3-(2-hydroxyethyl)phenyl]-1H-pyrazol-5-yl}-3-(2,3-dichlorophenyl)urea], the IC50 was 830 nM in experiment [1], 380 nM in experiment [2], 2.3 nM in experiment [3] and 11 nM in experiment [4].
On the same counts, the results for `CC(C)(C)c1cc(NC(=O)Nc2cccc(Cl)c2Cl)n(-c2ccc3c(c2)NCC3)n1` [Example 112, 1-(3-t-butyl-1-(indolin-6-yl)-1H-pyrazol-5-yl)-3-(2,3-dichlorophenyl)urea] are 480 nM, 210 nM, 2.9 nM and 12 nM.
On the same counts, the results for `CC(C)(C)c1cc(NC(=O)Nc2cccc(Cl)c2Cl)n(-c2cccc(C(N)=O)c2)n1` [Example 13, 1-[3-t-butyl-1-(3-carbamoylphenyl)-1H-pyrazol-5-yl]-3-(2,3-dichlorophenyl)urea] are 2000 nM, 360 nM, 5.2 nM and 45 nM.
On the same counts, the results for `CC(C)(C)c1cc(NC(=O)Nc2cccc(Cl)c2Cl)n(-c2ccc(C(C)(C)O)cc2)n1` [Example 20, 1-{3-t-butyl-1-[4-(2-hydroxypropan-2-yl)phenyl]-1H-pyrazol-5-yl}-3-(2,3-dichlorophenyl)urea] are 1600 nM, 130 nM, 8.5 nM and 60 nM.
With `CC(C)(C)c1cc(NC(=O)Nc2cc(F)cc(F)c2F)n(-c2ccc3c(c2)CCN3S(C)(=O)=O)n1` [Example 109, 1-(3-t-butyl-1-(1-(methylsulfonyl)indolin-5-yl)-1H-pyrazol-5-yl)-3-(2,3,5-trifluorophenyl)urea], the IC50 in experiment [1] was found to be 140 nM; in experiment [2], 38 nM; in experiment [3] it was 2.7 nM.
On the same counts, the results for `CN(C)CCc1cccc(-n2nc(C(C)(C)C)cc2NC(=O)Nc2cccc(Cl)c2Cl)c1` [Example 40, 1-(3-t-butyl-1-{3-[2-(dimethylamino)ethyl]phenyl}-1H-pyrazol-5-yl)-3-(2,3-di-chlorophenyl)urea] are 570 nM, 470 nM and 8.7 nM.
Turning to `CC(C)(C)c1cc(NC(=O)Nc2cccc(Cl)c2Cl)n(-c2cccc(C(C)(C)O)c2)n1` [Example 2, 1-{3-t-butyl-1-[3-(2-hydroxypropan-2-yl)phenyl]-1H-pyrazol-5-yl}-3-(2,3-dichlorophenyl)urea], the IC50 in experiment [1] came to 2000 nM; in experiment [2], 460 nM; in experiment [3], 19 nM.
As to `CC(Cc1cccc(-n2nc(C(C)(C)C)cc2NC(=O)Nc2cccc(Cl)c2Cl)c1)C(=O)O` (stereo not shown) [Example 267, 3-(3-{3-t-butyl-5-[3-(2,3-dichlorophenyl)ureido]-1H-pyrazol-1-yl}-phenyl)-2-methylpropanoic acid], the results for the IC50 in experiment [2], in experiment [3] and in experiment [4] were 550 nM, 7.9 nM and 12 nM, respectively.
Consider `CC(C)(C)c1cc(NC(=O)Nc2cccc(Cl)c2Cl)n(-c2cccc(Cn3c(=O)[nH]n(-c4ccccc4)c3=O)c2)n1` [Example 273, 1-(3-t-butyl-1-{3-[(3,5-dioxo-1-phenyl-1,2,4-triazolidin-4-yl)methyl]phenyl}-1H-pyrazol-5-yl)-3-(2,3-dichlorophenyl)urea], for which the IC50 in experiment [2] turned out to be 1700 nM; in experiment [3] it was 8.7 nM; in experiment [4], 34 nM.
For `CNC(=O)[C@@H]1Cc2ccc(-n3nc(C(C)(C)C)cc3NC(=O)Nc3cccc(Cl)c3Cl)cc2CN1` [Example 187, 1-(3-t-butyl-1-((3S)-3-(methylcarbamoyl)-1,2,3,4-tetrahydroisoquinolin-7-yl)-1H-pyrazol-5-yl)-3 (2,3-dichlorophenyl)urea], the IC50 in experiment [1] is 560 nM; in experiment [2], 150 nM; in experiment [3] it was 3 nM.
With `CC(C)(C)c1cc(NC(=O)Nc2cccc(Oc3ccccc3)c2)n(-c2ccc3c(c2)CCNC3)n1` [Example 140, 1-(3-t-butyl-1-(1,2,3,4-tetrahydro-isoquinolin-6-yl)-1H-pyrazol-5-yl)-3-(3-phenoxyphenyl)urea], the results for the IC50 in experiment [1], in experiment [2] and in experiment [3] were 120 nM, 2300 nM and 4.6 nM, respectively.
For `CC(C)(C)c1cc(NC(=O)Nc2cccc(Cl)c2Cl)n(-c2ccc3c(c2)CCN(S(C)(=O)=O)CC3)n1` [Example 336, 1-(3-t-butyl-1-(3-(methylsulfonyl)-2,3,4,5-tetrahydro-1H-benzo[d]azepin-7-yl)-1 H-pyrazol-5-yl)-3-(2,3-dichlorophenyl)urea], the IC50 in experiment [2] came to 170 nM; in experiment [3], 2 nM; in experiment [4], 11 nM.
For `CCOC(=O)CCc1cccc(-n2nc(C(C)(C)C)cc2NC(=O)Nc2cccc(Cl)c2Cl)c1` [Example 264, 3-(3-{3-t-butyl-5-[3-(2,3-dichlorophenyl)ureido]-1H-pyrazol-1-yl}phenyl)propionic acid ethyl ester], in that order: 140 nM, 7.3 nM and 82 nM.
For `CC(C)(C)c1cc(NC(=O)Nc2cccc(Cl)c2Cl)n(-c2ccc3c(c2)CCN3)n1` [Example 106, 1-(3-t-butyl-1-(indolin-5-yl)-1H-pyrazol-5-yl)-3-(2,3-dichlorophenyl)urea], in that order: 120 nM, 3.6 nM and 12 nM.
Consider `CC(C)(C)c1cc(NC(=O)Nc2ccc(Cl)cc2)n(-c2cc(CO)c3ccccc3c2)n1` [Example 61], for which the IC50 in experiment [1] amounted to 810 nM; in experiment [2], 1500 nM; in experiment [3], 18 nM.
In the case of `CC(C)(C)c1cc(NC(=O)Nc2cccc(Cl)c2Cl)n(-c2cccc(C(=N)NO)c2)n1` [Example 43, 1-{1-[3-(N-hydroxycarbamimidoyl)phenyl]-3-t-butyl-1H-pyrazol-5-yl}-3-(2,3-dichlorophenyl)-urea], the IC50 in experiment [2] came to 360 nM; in experiment [3], 4.3 nM; in experiment [4], 13 nM.
In the case of `CC(C)(C)c1cc(NC(=O)Nc2cccc(Cl)c2Cl)n(-c2cccc(CCN)c2)n1` [Example 39, 1-{1-[3-(2-aminoethyl)phenyl]-3-t-butyl-1H-pyrazol-5-yl}-3-(2,3-dichlorophenyl)urea], the IC50 was 350 nM in experiment [1], 240 nM in experiment [2] and 7.1 nM in experiment [3].
Regarding `CC(C)(C)c1cc(NC(=O)Nc2cccc(Cl)c2Cl)n(-c2ccc3c(c2)CN(C(=N)N)CC3)n1` [Example 130, 1-[3-t-butyl-1-(2-carbamimidoyl-1,2,3,4-tetrahydroisoquinolin-7-yl)-1H-pyrazol-5-yl]-3-(2,3-dichlorophenyl)urea], the IC50 stood at 230 nM in experiment [1] and 320 nM in experiment [2].
With `COc1cccc(-n2nc(C(C)(C)C)cc2NC(=O)Nc2cccc(Cl)c2Cl)c1` [Example 15, 1-(3-t-butyl-1-(3-methoxyphenyl)-1H-pyrazol-5-yl)-3-(2,3-dichlorophenyl)urea], the IC50 in experiment [1] was 390 nM; in experiment [2] it was 81 nM; in experiment [3] it was 3.3 nM.
For `CC(C)(C)c1cc(NC(=O)Nc2cccc(Cl)c2Cl)n(-c2cccc(C#N)c2)n1` [Example 9], in that order: 180 nM, 47 nM and 4.6 nM.
For `CC(C)(C)c1cc(NC(=O)Nc2ccc(Oc3ccccc3)cc2)n(-c2ccc3c(c2)CCNC3)n1` [Example 143, 1-(3-t-butyl-1-(1,2,3,4-tetrahydroiso-quinolin-6-yl)-1H-pyrazol-5-yl)-3-(4-phenoxyphenyl)-urea], in that order: 250 nM, 940 nM and 14 nM.
